Measured values reported in US9125881B2, “Monoglyceride of acetoacetate and derivatives for the treatment of neurological disorders” (Accera, Inc., priority 2008, dated 2015).
“Also recorded” adds a separate entry of the source.

How the values were obtained:
[1] = Mouse pharmacokinetic (PK) study: blood ketone bodies after po and ip dosing; format: in vivo; conditions: ICR male mice, single po dose (2.5, 5, 10 ml/kg) or single ip dose (1 g/kg); plasma; as early as 15 minutes
Procedure: The inventor examined the blood levels of ketone bodies after oral (po) and intraperitoneal (ip) dosing of monoacetoacetin at different time points in the mouse.
ICR male mice 6 to 7 weeks old were used. Each mouse weighed between 20-30 grams. Animals were housed 3 per cage and were acclimated for at least 3 days prior to dosing. Mice were given either a single po dose (ranging from 2.5, 5 and 10 ml/kg) of compound, or a single ip dose (1 g/kg). Animals were anesthetized for blood collection at the times 15, 30, 60 and 180 minutes. Whole blood (˜0.4 mls) was collected via cardiac puncture and collected into sodium heparin anticoagulant (Na Heparin, 1:9 ratio). Blood was centrifuged for 8 minutes at 13,000 rpm to isolate plasma. The plasma was transferred into pre-labeled, color-coded eppendorf tubes and frozen at −70° C. […] Plasma levels of beta-hydroxybutyrate (BHB) were determined using a beta-hydroxybutyrate detection kit following manufacturer's directions (StanBio Inc.).

[2] = test system: MPTP lesioned mice; assay: Neuroprotective effects in MPTP lesioned mice (mouse model of Parkinson's disease); format: in vivo; conditions: for TH+ neuron density in substantia nigra (mean): 8 day ip MPTP, histology on treatment day 11
Procedure: To test the possible therapeutic potential of AC-0523 a small pilot experiment was performed examining the potential neuroprotective effects of AC-0523 in a mouse model of Parkinson's disease (PD). 1-methyl-4-phenyl-1,2,3,6-tetrahydropyridine (MPTP), blocks complex I (NADH-ubiquinone oxidoreductase) of the mitochondrial electron transport chain, and causes typical symptoms of (PD) and the loss of dopaminergic neurons.
Systemic injection of MPTP, upon conversion to MPP+, produces a loss of nigrostriatal dopamine (DA) nerve terminals and eventual death of […] dopaminergic neurons. This neuropathology mimics conditions in the dopamine denervated striatum of human PD patients, and produces […] and postural instability. Assays for tyrosine hydroxylase (TH), the enzyme responsible for catalyzing the production of dopamine, and quantification of TH-containing cells in the SNc are performed to measure the extent of […] dopaminergic neurodegeneration.
A parallel group design was used. After acclimation in the facility, subjects were tested on the Rotarod and activity tasks. On the second day of test treatment, all subjects began an 8 day ip administration of MPTP or saline. Fifteen minutes before MPTP or saline treatment and 2.75 hours after, subjects received either the test compound or saline. On the first and ninth treatment day blood draws were taken for subsequent monitoring of β-hydroxybutyrate. On treatment day 11 all subjects were euthanized and histology was preformed on a small number of test animals.

[3] = MPTP-treated mice, listed as AC-0523

Compound: CC(=O)CC(=O)OCC(O)CO (stereo not drawn) [Monoacetoacetin, 2,3-dihydroxypropyl 3-oxobutanoate]
- circulating BHB levels [1]: significant increases
- TH-positive cell counts in the SNc versus MPTP-treated mice who received only saline or AC-1202 [2]: higher
- density of TH in the caudate-putamen ([2]; MPTP-treated mice): highest
- TH+ neuron density in substantia nigra (mean) ([2]; MPTP-treated mice, listed as AC0523): 111.000
- TH+ neuron density in substantia nigra (mean) [2, 3]: 111±20
- protection of tyrosine hydroxylase (TH) expressing cells from MPTP toxicity / neuroprotection [2, 3]: protected tyrosine hydroxylase (TH) expressing cells from MPTP toxicity; also recorded: neuroprotective
